{"source": "patent EP0655506B1", "about": "(priority 1994, dated 1995)", "data": [{"target": "T1, T7 DNA polymerase Y526F (Escherichia phage T7, UniProt P00581, DEL118-145/Y526F)", "T1 construct": "made in house; host or cells: strain that produces E. coli thioredoxin (lac promoter)", "T1 sequence (P00581 other isoform, or with tags, fused parts or gaps DEL118-145/Y526F)": "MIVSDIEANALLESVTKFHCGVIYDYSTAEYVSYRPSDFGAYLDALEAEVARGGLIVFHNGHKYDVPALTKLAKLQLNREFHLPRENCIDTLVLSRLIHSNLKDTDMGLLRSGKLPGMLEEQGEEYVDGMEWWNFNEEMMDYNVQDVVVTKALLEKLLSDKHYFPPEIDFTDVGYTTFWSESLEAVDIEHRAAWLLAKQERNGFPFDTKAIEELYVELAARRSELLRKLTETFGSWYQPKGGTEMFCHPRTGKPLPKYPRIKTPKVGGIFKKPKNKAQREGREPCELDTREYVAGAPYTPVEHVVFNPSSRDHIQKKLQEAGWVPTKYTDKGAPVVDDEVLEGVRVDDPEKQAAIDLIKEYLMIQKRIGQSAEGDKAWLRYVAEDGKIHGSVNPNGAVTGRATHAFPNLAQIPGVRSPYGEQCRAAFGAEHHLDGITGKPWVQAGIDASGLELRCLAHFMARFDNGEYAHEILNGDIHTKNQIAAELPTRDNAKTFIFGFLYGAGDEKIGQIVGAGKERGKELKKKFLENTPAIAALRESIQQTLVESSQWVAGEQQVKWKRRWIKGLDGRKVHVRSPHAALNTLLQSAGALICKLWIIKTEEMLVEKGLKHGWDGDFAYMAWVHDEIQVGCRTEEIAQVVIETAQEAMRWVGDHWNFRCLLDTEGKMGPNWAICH", "T1 sequence (P0AA25 2-109, stated change not applied, further chain)": "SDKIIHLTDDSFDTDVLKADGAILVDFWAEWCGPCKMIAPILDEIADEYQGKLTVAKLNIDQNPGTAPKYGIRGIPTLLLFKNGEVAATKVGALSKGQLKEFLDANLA", "assay": "Gel electrophoresis-based rate of incorporation of dideoxynucleotides relative to deoxynucleotides, varying the ratio of dNTPs to ddNTPs (Example 7)", "assay_type": "biochemical, bacteriophage T7", "conditions": "10 µM 4 dNTPs, ddNTP 100 to 2,000 µM; ddNTP:dNTP ratio giving fragments comparable to T7 DNA polymerase, multiplied by its Example 6 ratio", "method": "This example is similar to that described in Example 6. While it is the preferred test for DNA polymerases that discriminate strongly against the incorporation of dideoxynucleotides (e.g. T7 DNA polymerase Y526F, E. coli DNA polymerase I and Taq DNA polymerase), it also works well with DNA polymerases that efficiently incorporate ddNMPs (e.g. T7 DNA polymerase, E. coli DNA polymerase I mutant F762Y and Taq DNA polymerase mutant F667Y).\nThe average length of a series of fragments is determined in one of two ways. […] The position of the front marking the appearance of visible radioactive bands is usually relatively sharp and readily observed by eye. However, it is also possible to determine such positions more precisely using the Phosphoimager to locate the position in each lane where a certain threshold of radioactivity per unit area occurs, starting at the top of the gel and moving down the gel.\nSome DNA polymerases discriminate very strongly against the incorporation of dideoxynucleotides, in which case it is difficult to add sufficient ddNTPs to the reaction to clearly detect the position of the largest dideoxy-terminated fragments on a denaturing polyacrylamide gel. For such DNA polymerases, one can use an alkaline agarose gel electrophoresis to compare the lengths of the dideoxy-terminated fragments in the different series.\nThese tests were carried out using the six DNA polymerases described in Example 6. The reaction conditions were identical to that described in Example 6 except for the concentrations of dNTPs and ddNTPs. All reaction mixtures contained 10 µM 4 dNTPs. Each of the four ddNTP concentrations were varied by two-fold increments in the following ranges for the six DNA polymerases as follows: T7 DNA polymerase, E. coli DNA polymerase I F762Y, and Taq DNA polymerase F667Y , 0.02 µM to 1 µM, and T7 DNA polymerase Y526F, E. coli DNA polymerase I and Taq DNA polymerase, 100 to 2,000 µM. The reactions were carried out and the samples were analyzed by denaturing polyacrylamide gel electrophoresis as described in Example 6. Drying of the gel, autoradiography, and Phosphoimager analysis were as described in Example 6. The Table below summarizes the results from this experiment; the values shown for T7 DNA polymerase, E. coli DNA polymerase I F762Y, and Taq DNA polymerase F667Y are the absolute ratios obtained in Example 6 by statistical analysis of the rate of exponential decay in intensity of dideoxy-terminated fragments obtained using a 1:1 ratio of dNTPs to ddNTPs. […] This factor was multiplied by the absolute ratios obtained for T7 DNA polymerase, E. coli DNA polymerase I F762Y, and Taq DNA polymerase F667Y in Example 6 in order to obtain the values shown below for T7 DNA polymerase Y526F, E. coli DNA polymerase I and Taq DNA polymerase, respectively.", "values": [{"smiles": "Nc1ncnc2c1ncn2[C@H]1CC[C@@H](COP(=O)(O)OP(=O)(O)OP(=O)(O)O)O1", "note": "[ddATP]", "Incorporation Rate Ratios (dN/ddN)": "7,300"}, {"smiles": "Nc1ccn([C@H]2CC[C@@H](COP(=O)(O)OP(=O)(O)OP(=O)(O)O)O2)c(=O)n1", "note": "[ddCTP]", "Incorporation Rate Ratios (dN/ddN)": "11,000"}, {"smiles": "Nc1nc2c(ncn2[C@H]2CC[C@@H](COP(=O)(O)OP(=O)(O)OP(=O)(O)O)O2)c(=O)[nH]1", "note": "[ddGTP]", "Incorporation Rate Ratios (dN/ddN)": "6,400"}, {"smiles": "Cc1cn([C@H]2CC[C@@H](COP(=O)(O)OP(=O)(O)OP(=O)(O)O)O2)c(=O)[nH]c1=O", "note": "[ddTTP]", "Incorporation Rate Ratios (dN/ddN)": "8,400"}]}]}
